According to paper PMC8533333, “Melatonin Analogues Potently Inhibit MAO-B and Protect PC12 Cells against Oxidative Stress” (Antioxidants, 2021):

Experiments:
[1] = Neuroprotection against rotenone-induced toxicity in PC12 cells (MTT); settings: rat
Description: (§1) Control cells were incubated in an equivalent volume of DMSO to a final concentration of 0.3%. Neuroprotective effects of the tested compounds on the toxicity induced by 6-OHDA or rotenone in PC12 cells were evaluated as described previously with slight modifications. In brief, cells were pre-treated with the tested compounds or rasagiline at the indicated concentrations for 4 h. Next, they were exposed to 6-OHDA (50 μM) or rotenone (1 μM) for 24 h. In another set of experiments, the influence of HO-1 inhibitor, ZnPP, on the neuroprotective effects of the tested compounds against 6-OHDA-induced oxidative damage was investigated as previously reported. Briefly, the cells were pre-treated with the tested compounds for 4 h and then incubated with 0.2 µM of ZnPP for 30 min. Subsequently, 6-OHDA was added at a final concentration of 50 µM and incubated for 24 h.
(§2) After the desired treatment, cell viability was determined by MTT assay as described previously. Briefly, MTT was added to the cells at the final concentration of 0.5 mg/mL, which was followed by incubation for 3 h at 37 °C. The supernatants were carefully removed, and then, 300 μL of DMSO was added to each well to dissolve formazan precipitate. The absorbance of the dissolved solution was measured at 550 nm using a microplate reader (SpectraMax M2^e, Molecular Devices, Sunnyvale, CA, USA). The cell viability was presented as the percentage of the absorbance measured in the vehicle-treated control cells.

[2] = Neuroprotection against 6-OHDA-induced oxidative toxicity in PC12 cells (MTT); settings: rat
Description: as §1
as §2, with “The supernatants were carefully removed, and then, 300 μL of DMSO was added to each well to dissolve formazan precipitate.” left out

SMILES | viability at 24 h, 1 μM [1] [%] | viability at 24 h, 50 µM [2] [%]
C=C(C)[C@H]1Cc2c(ccc3c2O[C@@H]2COc4cc(OC)c(OC)cc4[C@@H]2C3=O)O1 [rotenone, reference compound] | 64.4 ± 1.4 | –
NCCc1cc(O)c(O)cc1O [6-OHDA, 6-Hydroxydopamine] | – | 50.9 ± 3.1
